From patent US7414068B2, “Benzopyran derivatives substituted with secondary amines including tetrazole, method for the preparation thereof and pharmaceutical compositions containing them” (Dongbu Hannong Chemical Co., Ltd., priority 2002, dated 2008)

Tests used:
cortical neuron cells = assay: Protective effect on iron-induced neuronal cell injury (LDH release); assay type: cell-based; settings: FeSO4 50 μM; for protective effect on neuron cell: Inhibition (%, 30 μM compound addition): LDH reduction vs control; for IC50: LDH
Experimental: From the brains of 17˜18 day-old embryos, cortical neuron cells were isolated and then, cultured at 37° C. for 7˜9 days in a 5% CO2 incubator. The said cortical cell cultures were washed twice with MEM (Minimum essential medium) to reduce the serum level to 0.2%. […] Then, the compound of the said concentration was pre-treated for 30 min, respectively. For the experiment, test compound was dissolved in DMSO and diluted in a medium. At this time, the final concentration of DMSO was not allowed to exceed 0.1%. For control group, only vehicle was applied.
After the said pre-treatment, FeSO4 was added to the medium for a final concentration to be 50 μM. The medium was cultured in CO2 incubator for 24 hours. During the incubation, lactate dehydrogenase (LDH) was released by iron. The serum level of lactate dehydrogenase released into the medium was measured to assess necrosis of neuronal cell by the oxidative toxicity of iron. The protective effect on neuron cells of the test compounds was evaluated by calculating the LDH reduction rate of treatment-group compared with that of the control group.

brain homogenate = assay: Inhibitory effect against lipid peroxidation by iron (MDA quantification); assay type: biochemical, rat; settings: 100 μM compound, FeCl2 400 μM, 37° C. 30 min
Experimental: The rat brain was homogenized in a Krebs buffer (15 mM HEPES, 10 mM glucose, 140 mM NaCl, 3.6 mM KCl, 1.5 mM CaCl2, 1.4 mM KH2PO4, 0.7 mM MgCl2, PH 7.4) and the supernatant separated by centrifugation at 12,000 rpm for 10 min was used for further experiments. FeCl2 was added for the final concentration to be 400 μM. Then the brain homogenate was allowed to stand at 37° C. for 30 min for the facilitation of oxidation. Each of the test compounds was added at a concentration of 100 μM. For control group, only vehicle was applied.
Iron facilitates the oxidation of the said brain homogenate to produce malondialdehyde (MDA), lipid peroxidation product. Thus, the lipid peroxidation was determined by MDA quantification. The inhibitory effect against lipid peroxidation of the test compounds was evaluated by calculating MDA reduction rate of the test compounds compared with that of the control group.
Typically, the MDA quantification is achieved by reacting samples with 2-thiobarbituric acid (TBA) and measuring the absorbance at 530 nm. However, this method is unsuitable to treat samples on a large scale because of a boiling step. Thus, in this experiment, N-methyl-2-phenylindole was used instead of TBA.

[1] = Acute oral toxicity test in rats; settings: SD, rat, in vivo, single oral dose, suspended in 0.5% methyl cellulose, read-out: lethal dose (LD50) for oral administration
Experimental: In this test, six-week old SPF SD rats were used with two rats assigned to each group. Each group was consisted of two rats. The compounds prepared in example 1, 7, 11, 17, 22, 24, 26, 28, 30, 32, 34, 42, 52, 54, 55, 56, 57, 59, 60, 61, 70, 75, 77, 79, 81, 83, 85, and 89 were suspended in 0.5% methyl cellulose, respectively. […] Also, hematological test and biochemical analysis were accomplished. After sacrificing the animals, autopsy was performed for macroscopic observations of the organs and tissues. As a result, there was no significant changes in clinical symptoms, body weight and mortalities. Also in hematology, serum chemistry parameters, macroscopic observation and drug-related changes were not observed.

[2] = system: isolated ischemic rat heart; assay: Cardioprotective effect in ischemic heart models of rats (Langendorff); settings: 10 μM
Experimental: Male rats (300˜450 g, obtained form the experimental animal team of the Korea Research Institute of Chemical Technology) were anaesthetized by the intra-peritoneal injection of sodium pentobarbital at a dose of 100 mg/kg. Heparin (1,000 U/kg) was injected to the tail vein and then the heart was enucleated. Particularly, cannula (PE 240) was inserted to the organ. Rats were mechanically ventilated with a rodent ventilator, in situ aorta cannula was inserted into their aorta. In retorograde perfusion, their hearts were enucleated, then just hung onto Langendorff Apparatus. Tissue attached at the heart was removed. Heart was perfused in oxygenated modified Krebs-Henseleit bicarbonate buffer (composition<mM/L>116 NaCl, 4.7 KCl, 1.1 MgSO4, 1.17 KH2PO4, 24.9 NaHCO3, 2.52 CaCl2, 8.32 Glucose, 2.0 Pyruvate) at a constant perfusion pressure (85 mmHg). A metal cannula attached to latex balloon filled with solvent (ethanol: water=1:1 (v/v)) was placed in the left ventricle through pulmonary vein and connected to a isovolumetric pressure transducer (H.S.E., Germany) for measurement of left ventricular pressure (LVP). The hearts were allowed to equilibrate for 15 min, at which time left ventricular end-diastolic pressure (EDP) was adjusted to 5 mmHg and this balloon volume was maintained throughout the experiment.
Baseline cardiac contractile function, heart rate (HR), and coronary flow (CF) were measured. Cardiac contractile function was calculated by […], yielding LVDP (left ventricular developed pressure). Double product RPP (rate-pressure product) (DP), another important parameter for indirectly assessing cardiac performance in Langendorff heart impossible to measure cardiac output was calculated by multiplying HR by LVDP.
Throughout the experiment, total coronary blood flow was measured by the use of coronary flow probe (diameter: 1.0 mm) installed in aortic cannula with electromagnetic flowmeter. Temperature of heart was steadily maintained by immersing the heart at 37° C. in physiological saline solution to which 95% O2/5% CO2 was constantly supplied. After stabilization for 15 min, the hearts were pre-treated for 10 min in vehicle (0.04% DMSO) or mixture containing the compound of the present invention or control material. Thereafter, cardiac contractile function, HR and CF were repeatedly measured. Global ischemia was induced by completely shutting off the perfusate for 30 min. Severity of ischemia was determined as the time to contracture (TTC, min) during global ischemia in which the first 5 mmHg increase in EDP was observed. Then, the hearts were reperfused and, 30 min later, contractile functions (LVDP, HR and CF) was repeatedly measured. After reperfusion was accomplished for 30 min, LDH (lactate dehydrogenase) was measured as a sensitive index for loss of cell viability with a kit.

isolated rat aorta = assay: Vasodilating effect on blood vessel excised from rats (methoxamine-constricted aorta); settings: isolated rat aorta constricted with methoxamine (3 μM); read-out: Concentration for inhibition of constriction induced by methoxamine in rat arota (IC50)
Description: Rats (350˜450 g, obtained from the Experimental Animal Team of the Korea Research Institute of Chemical Technology) were knocked to be unconscious by hitting the occipital region, sacrificed by cervical dislocation, and underwent thoracotomy. After being quickly removed, the thoracic aorta was deprived of the adipose tissue and cut into aortic rings of 3 mm width. The aorta was lightly rubbed with cotton club soaked in a modified Krebs Henseleit buffer (Physiological salt solution) to remove the inner epithelial layer therefrom. While being hung in an organ bath containing a physiological buffer, the vascular smooth muscle was allowed to equilibrate under a resting tension of 2 g and then, stand for 1 hour at 37° C. for stabilization, supplying a carbogen consisting of 95% O2˜5% CO2.
Thereafter, the vascular smooth muscle was constricted with 10^−5M phenylephrine and washed several times with physiological saline solution. The said procedure was repeated again to ensure the stable reactivity of vascular smooth muscle to repetitive constriction/relaxation.
Thereafter, 3×10^−6 M methoxamine was applied to induce an intensive constriction in the vascular smooth muscle. When the vasoconstriction induced by the methoxamine was reached and maintained to a maximum, test compounds and control material was cumulatively added to the organ bath in concentration of 1, 3, 10 and 30 μM, respectively, to examine the vasodilating effect. Cromakalim, BMS-180448 (the compound of formula 4) and BMS-191095 (the compound of formula 5), known to be the first generation KATP opener with potent vasodilating effect were used as control materials.
The change rate of constriction by the addition of the drugs compared to the maximal constriction induced by methoxamine was calculated to plot a concentration-relaxation response curve. Through a least linear regression analysis, IC50 that the drug concentration at which the vascular tissue is relaxed to 50% extent of the maximal constriction, was obtained for each drug.

SMILES	protective effect on neuron cell: Inhibition (%, 30 μM compound addition) (cortical neuron cells; 24 hours)	IC50 (cortical neuron cells; Cortical neurone, 24 h)	inhibitory effect against lipid peroxidation induced by iron (%, 100 μM) (brain homogenate)	LD50 [1]	IC50 (cortical neuron cells; 24 hours)	EDP (mmHg) ([2]; after 30 min global ischemia and reperfusion)	LDH (u/g) ([2]; reperfusion LDH release)	LVDP X HR (%) ([2]; reperfusion, % of pre-treatment DP)	TTC ([2]; time to contracture during global ischemia)	IC50 (isolated rat aorta)
COC(OC)[C@@]1(C)Oc2ccc(N)cc2[C@H](N(Cc2nnn(C)n2)c2ccccc2C(C)C)[C@H]1O [Example 52, (2S,3R,4S)-6-amino-4-[N-(2-isopropylphenyl)-N-(2-methyl-2H-tetrazol-5-ylmethyl)amino]-3-hydroxy-2-methyl-2-dimethoxymethyl-3,4-dihydro-2H-1-benzopyran]	91%	3000 nM	88%	> 2000 mg/kg	–	–	–	–	–	–
COC(OC)[C@@]1(C)Oc2ccc([N+](=O)[O-])cc2[C@H](N(Cc2nnn(C)n2)c2ccc(O)cc2C)[C@H]1O [Example 64, (2S,3R,4S)-6-nitro-4-[N-(2-methyl-4-hydroxyphenyl)-N-(2-methyl-2H-tetrazol-5-ylmethyl)amino]-3-hydroxy-2-methyl-2-dimethoxymethyl-3,4-dihydro-2H-1-benzopyran]	–	–	79%	–	–	–	–	–	–	–
CCOC(=O)c1ccc(N(Cc2nnn(C)n2)[C@H]2c3cc(N)ccc3O[C@](C)(C(OC)OC)[C@@H]2O)cc1 [Example 54, (2S,3R,4S)-6-amino-4-[N-(4-ethoxycarbonylphenyl)-N-(2-methyl-2H-tetrazol-5-ylmethyl)amino]-3-hydroxy-2-methyl-2-dimethoxymethyl-3,4-dihydro-2H-1-benzopyran]	98%	< 2000 nM	87%	> 2000 mg/kg	1500 nM	–	–	–	–	–
COC(=O)c1cccc(N(Cc2nnn(C)n2)[C@H]2c3cc(N)ccc3O[C@](C)(C(OC)OC)[C@@H]2O)c1 [Example 59]	77%	< 2000 nM	70%	> 2000 mg/kg	1800 nM	–	–	–	–	–
COC(OC)[C@@]1(C)Oc2ccc([N+](=O)[O-])cc2[C@@H](N(Cc2nnn(C)n2)c2ccc(Cl)cc2)[C@@H]1O [Example 1, (2S,3S,4R)-6-nitro-4-[N-(4-chlorophenyl)-N-(2-methyl-2H-tetrazol-5-ylmethyl)amino]-3-hydroxy-2-methyl-2-dimethoxymethyl-3,4-dihydro-2H-1-benzopyran]	71%	18100 nM	–	> 2000 mg/kg	–	29.3 mmHg	15.2 u/g	46.8%	24.8 min	7140 nM
COC(OC)[C@]1(C)Oc2ccc(N)cc2[C@@H](N(Cc2nnn(C)n2)c2ccc(C(F)(F)F)cc2)[C@@H]1O [Example 77, (2R,3S,4R)-6-amino-4-[N-(4-trifluoromethylphenyl)-N-(2-methyl-2H-tetrazol-5-ylmethyl)amino]-3-hydroxy-2-methyl-2-dimethoxymethyl-3,4-dihydro-2H-1-benzopyran]	111%	< 2000 nM	–	> 2000 mg/kg	1900 nM	–	–	–	–	> 30000 nM
COC(OC)[C@@]1(C)Oc2ccc(N)cc2[C@@H](N(Cc2nnn(C)n2)c2ccc(Cl)cc2)[C@@H]1OC(C)=O [Example 89, (2S,3S,4R)-6-amino-4-[N-(4-chlorophenyl)-N-(2-methyl-2H-tetrazol-5-ylmethyl)amino]-3-acetoxy-2-methyl-2-dimethoxymethyl-3,4-dihydro-2H-1-benzopyran]	–	–	81%	> 2000 mg/kg	–	–	–	–	–	–
COC(OC)[C@@]1(C)Oc2ccc(N)cc2[C@H](N(Cc2nnn(C)n2)c2ccc(C(F)(F)F)cc2)[C@H]1O [Example 34, (2S,3R,4S)-6-amino-4-[N-(4-trifluoromethylphenyl)-N-(2-methyl-2H-tetrazol-5-ylmethyl)amino]-3-hydroxy-2-methyl-2-dimethoxymethyl-3,4-dihydro-2H-1-benzopyran]	111%	1500 nM	–	> 2000 mg/kg	–	–	–	–	–	> 30000 nM
COC(OC)[C@@]1(C)Oc2ccc(N)cc2[C@H](N(Cc2nnn(C)n2)c2ccc(F)cc2)[C@H]1O [Example 56, (2S,3R,4S)-6-amino-4-[N-(4-fluorophenyl)-N-(2-methyl-2H-tetrazol-5-ylmethyl)amino]-3-hydroxy-2-methyl-2-dimethoxymethyl-3,4-dihydro-2H-1-benzopyran]	100%	5300 nM	76%	> 2000 mg/kg	–	–	–	–	–	–
